Values after ≈ are worked out from the molar mass of the structure shown. Where two headings read alike, the source gives them in different places.

For assay [1], the system named is Pseudomonas aeruginosa isolates from respiratory samples of people with cystic fibrosis growing in biofilms. It is filed as cell-based. The following applies: biofilm, Calgary device, CF isolates. The text has this:
Two types of assays, an open and a closed system, were used to evaluate the in vitro activity on biofilms. The closed or static system based on the Calgary device (Diez-Aguilar M et al., Antimicrob Agents Chemother. 2018, 62, e01650-17, doi: 10.1128/AAC.01650-17, Moskowitz S M et al., J. Clin. Microbiol. 2004, 42, 1915-1922) analyzes biofilm formation in the wells of microtiter plates and is suitable for high-throughput analysis, obtaining pharmacodynamics (PD) parameters, while the open or dynamic system using the BioFlux device (Benoit M R et al., Appl. Environ. Microbiol. 2010, 76, 4136-4142) better resembles the in vivo conditions.
(§1) To perform biofilm tests with the Calgary device, fifty-three Pseudomonas aeruginosa isolates from respiratory samples of people with cystic fibrosis were selected among the 414 Pseudomonas aeruginosa of the iABC-collection (Ekkelenkamp M B et al., Antimicrob. Agents Chemother. 2019, 64, 1-7). A representative number of isolates from Northern Ireland, Spain, the Netherlands, and Australia were chosen, including different morphotyes: 18 smooth, 11 mucoid, 11 rough, 10 metallic, and 3 small colony variants. As control strains, the PAO (most commonly used strain for research on this ubiquitous and metabolically versatile opportunistic pathogen, Klockgether J et al., Journal of Bacteriology 2010, 192, 1113-1121) and its hypermutator derivative, PAO mutS strains were used (Oliver A et al., Antimicrob. Agents Chemother. 2004, 48, 4226-33).
(§2) This assay was performed as previously described but with minimal variations (Benoit M R et al., Appl. Environ. Microbiol. 2010, 76, 4136-4142) (FIG. 3). Briefly, a 0.5 McFarland culture was transferred to a flat-bottom 96-well microtiter plate (Nalge Nunc International, Rochester, New York, USA). Bacterial biofilm was formed around the pegs of a modified polystyrene microtiter lid. This lid with pegs was immersed into a growth plate and incubated for 20 h at 37° C. After rinsing the pegs 3 times in saline solution they were placed onto the antimicrobial in BBL™ Mueller-Hinton II cation-adjusted broth (MHB) (Becton, Dickinson and Company, Sparks, MD, USA) and incubated for 20 h at 37° C. […] After this incubation, the biofilm was recovered centrifuging (800 RPM/10 min) the peg lid in an antibiotic-free MHB filled-microtiter plate. The minimal biofilm inhibitory concentration (MBIC) was calculated after measuring the optical density (OD) (450 nm) before and after 6-hour incubation. Biofilm growth was defined as a mean OD difference of ≥0.05. […] The minimal biofilm eradication concentration (MBEC) was defined as the lowest concentration that prevents visible growth in the biofilm recovery medium after 18 h of the microtiter plate incubation (Ceri H et al., J. Clin. Microbiol. 1999, 37, 1771; Macià M D et al., Enferm. Infecc. Microbiol. Clin. 2018, 36, 375-381).
MBIC and the MBEC are used to determine the anti-biofilm antibiotic in vitro efficacy. MBIC is the lowest concentration at which there is no time-dependent increase in the mean number of biofilm viable cells comparing an early with a later exposure time, while the MBEC indicates the eradication (partly or completely) of biofilm viable cells (Thieme L et al., Biol. Proced. Online 2019, 21, 1-5).

The subject of assay [2] is PA34 (smooth phenotype). Put plainly: microbe, parasite or virus in culture. The following applies: PA34. It is filed as cell-based, Pseudomonas aeruginosa. The procedure: (§3) Two CF isolates, PA34 (smooth phenotype) and PA40 (mucoid phenotype), and the 2 reference strains PAO and PAO mutS were tested with the BioFlux device. None of the clinical strains were hypermutators.
(§4) Planktonic and biofilm susceptibility of the strains established in the Calgary device and used in the BioFlux device are described in Table 12.

Assay [3] deals with PAO. Put plainly: microbe, parasite or virus in culture. It is filed as cell-based, Pseudomonas aeruginosa. The following applies: PAO. The procedure: as §3, §4
For assay [4], the system named is PA40 (mucoid phenotype). Put plainly: microbe, parasite or virus in culture. The following applies: PA40. It counts as cell-based, Pseudomonas aeruginosa. The procedure:
as §3, §4

Assay [5] has as its system PAO mutS. In words: Planktonic susceptibility (MIC), PAO mutS. It is filed as cell-based, Pseudomonas aeruginosa. The procedure:
as §3, §4

Assay [6] deals with PA34 (smooth phenotype). It counts as cell-based, Pseudomonas aeruginosa. The following applies: PA34. The procedure:
as §3, §2, §4

In assay [7] the test system is PAO. It is filed as cell-based, Pseudomonas aeruginosa. The following applies: PAO. As to the method:
as §3, §2, §4

The test system of assay [8] is PA40 (mucoid phenotype). It counts as cell-based, Pseudomonas aeruginosa. As to conditions: PA40. As to the method: as §3, §2, §4
Assay [9] concerns PAO mutS. It counts as cell-based, Pseudomonas aeruginosa. As to the method:
as §3, §2, §4

In assay [10] the test system is Pseudomonas aeruginosa isolates from respiratory samples of people with cystic fibrosis. Put plainly: Planktonic susceptibility (MIC) of CF isolates. It counts as cell-based.
Excerpt: as §1

Assay [11] has as its system PAO, PAO mutS, PA40, PA34. Put plainly: Planktonic susceptibility of all strains used in the BioFlux device. It is filed as cell-based, Pseudomonas aeruginosa. The procedure:
as §3, §4

The mark [12] stands for this setting: Pseudomonas aeruginosa, read-out: MIC.
[13] abbreviates: Pseudomonas aeruginosa, read-out: MIC50.
Where [14] appears, read: Pseudomonas aeruginosa, read-out: MIC90.

As for `C[C@H]1[C@H](NC(=O)/C(=N\OC(C)(C)C(=O)O)c2csc(N)n2)C(=O)N1S(=O)(=O)O` [aztreonam], the MBEC50 in [1] is 512/>512 mg/L. The MBEC90 in [1] is on record as 512/>512 mg/L. The same compound registered an MBIC50 in assay [1] of 32 mg/L. The MBIC90 in assay [1] is listed as > 512 mg/L. In addition, the MIC in the assay with PA34 (smooth phenotype) [2] (setting [12]) is 0.5 µg/mL (≈ 1.15 µM); in the assay on PAO [3] (setting [12]), 4 µg/mL (≈ 9.19 µM); with PA40 (mucoid phenotype) [4] (setting [12]) it was 16 µg/mL (≈ 36.7 µM); against PAO mutS [5] (Pseudomonas aeruginosa), 64 µg/mL (≈ 147 µM). In addition, the MBEC is listed as 256 mg/L in the assay on PA34 (smooth phenotype) [6], >256 mg/L in the assay with PAO [7], >256 mg/L with PA40 (mucoid phenotype) [8] and >256 mg/L with PAO mutS [9]. The MBIC in the assay with PA34 (smooth phenotype) [6] was 8 mg/L; in the assay on PAO [7], >256 mg/L; in the assay on PA40 (mucoid phenotype) [8], 32 mg/L; in the assay with PAO mutS [9], >256 mg/L. In assay [10], the MIC range lay in the range of 0.5 to 512 µg/mL. Moreover, the MIC50 in assay [10] (setting [13]) came to 4 µg/mL (≈ 9.19 µM). For the same compound, the MIC90 in assay [10] (setting [14]) was found to be 256 µg/mL (≈ 588 µM).

For the compound colistin, in assay [1], the MBEC50 was determined as 64 mg/L, the MBEC90 turned out to be 128 mg/L, the MBEC range was ≤0.5 to 256 mg/L and the MBIC50 came to 8 mg/L. Further, in assay [1], the MBIC90 is recorded as 64 mg/L and the MBIC range was ≤0.5 to 256 mg/L. This compound registered an MIC against PA34 (smooth phenotype) [2] of 2 µg/mL. In the assay with PAO [3], this compound displayed an MIC of 1 µg/mL. Further, the MIC against PA40 (mucoid phenotype) [4] amounted to 0.5 µg/mL. In addition, the MIC in the assay on PAO mutS [5] (PAO mutS) is 1 µg/mL. In assay [11] (all tested strains susceptible), the MIC came out at 2 µg/mL. Also, in the assay on PA34 (smooth phenotype) [6], the MBEC turned out to be 128 mg/L and the MBIC amounted to 32 mg/L. Further, in the assay with PAO [7], the MBEC worked out at 128 mg/L and the MBIC worked out at 64 mg/L. Moreover, in the assay on PA40 (mucoid phenotype) [8], the MBEC is 32 mg/L and the MBIC stood at 32 mg/L. In the assay on PAO mutS [9], this compound gave an MBEC of 256 mg/L and an MBIC of 256 mg/L. Further, in [10], the MIC50 turned out to be 1 µg/mL, the MIC90 worked out at 4 µg/mL and the MIC range was ≤0.5 to 16 µg/mL.

In assay [1], `NC[C@H]1O[C@H](O[C@H]2[C@H](O)[C@@H](O[C@H]3O[C@H](CO)[C@@H](O)[C@H](N)[C@H]3O)[C@H](N)C[C@@H]2N)[C@H](N)C[C@@H]1O` [tobramycin] displayed an MBEC50 of 8 mg/L. The compound also registered an MBEC90 in assay [1] of 256 mg/L. The MBEC range in [1] was ≤0.5 to 512 mg/L. In assay [1], this compound returned an MBIC50 of 2 mg/L. The compound also gave an MBIC90 in assay [1] of 32 mg/L. Further, the MBIC range in assay [1] is ≤0.5 to 512 mg/L. Moreover, the MIC in the assay on PA34 (smooth phenotype) [2] (setting [12]) amounted to 0.25 µg/mL (≈ 0.535 µM); with PAO [3] (setting [12]) it was 0.5 µg/mL (≈ 1.07 µM); in the assay on PA40 (mucoid phenotype) [4] (setting [12]) it was 0.5 µg/mL (≈ 1.07 µM); with PAO mutS [5] (Pseudomonas aeruginosa), 2 µg/mL (≈ 4.28 µM); in assay [11] (Pseudomonas aeruginosa), 2 µg/mL (≈ 4.28 µM). For the same compound, the MBEC in the assay with PA34 (smooth phenotype) [6] is 2 mg/L; in the assay with PAO [7], 16 mg/L; with PA40 (mucoid phenotype) [8] it was 4 mg/L; with PAO mutS [9], 32 mg/L. Moreover, the MBIC came to 2 mg/L in the assay on PA34 (smooth phenotype) [6], 2 mg/L in the assay on PAO [7], 2 mg/L in the assay on PA40 (mucoid phenotype) [8] and 16 mg/L in the assay on PAO mutS [9]. For the same compound, in assay [10], the MIC range is ≤0.5 to 256 µg/mL. Further, in [10] (setting [13]), the MIC50 turned out to be 2 µg/mL (≈ 4.28 µM). Also, in assay [10] (setting [14]), the MIC90 amounted to 16 µg/mL (≈ 34.2 µM).

Broadly, the MIC50 is the lowest concentration that inhibits either 50% of growth or 50% of the strains tested, depending on the study. In general, MIC90 refers to an inhibitory concentration at the 90% level, which refers to growth in some studies and to a panel of isolates in others.

These data come from US20240100121A1, “COMPOSITIONS OF A BETA-HAIRPIN PEPTIDOMIMETIC AND AEROSOL DOSAGE FORMS THEREOF” (priority 2020, published 2024).
